Test results as given in US20190233884A1 (University of Southern California, priority 2016, published 2019).

Tested on: patients with refractory metastatic colorectal cancer (mCRC)
Experiment: PFS, OS and disease control in the training (evaluation) cohort of refractory mCRC patients receiving TAS-102 (n=52, Japan), by baseline characteristics, SNP genotype and toxicity
Assay type: in vivo, human
Conditions: for OS HR (95% CI)‡ / PFS HR (95% CI) ‡: multivariable; for OS HR (95% CI)† / PFS HR (95% CI) † / OS HR (95% CI) / PFS HR (95% CI): univariate
Protocol: All patients underwent the treatment in salvage-line setting. […]
Genomic DNA was extracted from peripheral whole blood in patients of all cohorts using the QIAmp Kit (Qiagen, Valencia, Calif., USA) according to the manufacturer's protocol (www.qiagen.com). The candidate SNPs were genotyped using PCR-based direct DNA sequence analysis by ABI 3100A Capillary Genetic Analyzer and Sequencing Scanner v1.0 (Applied Biosystems). Amplification of extracted DNA was carried out using both forward and reverse primers for each gene polymorphism as shown in Table 1. […] The investigators analyzing SNPs were blinded to the clinical data of the study patients.
The primary endpoint in this study was progression-free survival (PFS), and the secondary endpoints were overall survival (OS) and disease control rate (DCR). PFS was calculated from the date of starting treatment to the first observation of disease progression or death from any cause. If a patient had no disease progression or death, PFS was censored at the date of last follow up. OS was calculated from the date of starting treatment until the date of death from any cause or the date of the last follow-up, at which point OS was censored. The disease control rate (DCR) was defined as the proportion of patients who achieved a stable disease (SD) or […] according to RECISTv1.1. Chi-square test was used to examine the difference in baseline patient characteristics among the three cohorts. Allelic distribution of all SNPs by ethnicity for deviation from Hardy-Weinberg equilibrium and the allelic frequencies of SNPs were tested using the Chi-square tests with one degree of freedom. The associations between candidate SNPs and disease control, and toxicities were examined using contingency tables and Fisher's exact test. The associations of SNPs with PFS and OS were analysed using Kaplan-Meier curves and the log-rank test. Because the true mode of inheritance of candidate SNPs was not established yet, a codominant or dominant genetic model if appropriate was considered.
All patients underwent the treatment in salvage-line setting. […] In all patients, adverse events were graded according to the Common Terminology Criteria for Adverse Events, version 4.0. […]
Genomic DNA was extracted from peripheral whole blood in patients of all cohorts using the QIAmp Kit (Qiagen, Valencia, Calif., USA) according to the manufacturer's protocol (www.qiagen.com). The candidate SNPs were tested using PCR-based direct DNA sequence analysis by ABI 3100A Capillary Genetic Analyzer and Sequencing Scanner v1.0 (Applied Biosystems). […] The investigators analyzing SNPs were blinded to the clinical data.
The primary endpoint in this study was progression-free survival (PFS), and the secondary endpoints were overall survival (OS) and disease control rate (DCR).

[1] = Che1 rs1564796 T/C and C/C grouped together
[2] = Che1 rs1564796 T/C and C/C grouped vs T/T
[3] = Evaluation cohort, Anemia grade <3
[4] = Evaluation cohort, Anemia grade ≥3
[5] = Evaluation cohort, Anemia grade ≥3 vs <3
[6] = Evaluation cohort, Anorexia grade <3
[7] = Evaluation cohort, Anorexia grade ≥3
[8] = Evaluation cohort, Anorexia grade ≥3 vs <3
[9] = Evaluation cohort, Diarrhea grade <3
[10] = Evaluation cohort, Diarrhea grade ≥3
[11] = Evaluation cohort, Diarrhea grade ≥3 vs <3
[12] = Evaluation cohort, Leukopenia grade <3
[13] = Evaluation cohort, Leukopenia grade ≥3
[14] = Evaluation cohort, Leukopenia grade ≥3 vs <3
[15] = Evaluation cohort, Nausea grade <3
[16] = Evaluation cohort, Nausea grade ≥3
[17] = Evaluation cohort, Nausea grade ≥3 vs <3
[18] = Evaluation cohort, Neutropenia grade <3
[19] = Evaluation cohort, Neutropenia grade ≥3
[20] = Evaluation cohort, Neutropenia grade ≥3 vs <3
[21] = FANCD2 rs6792811 G/A and G/G grouped together
[22] = FANCD2 rs6792811 G/A and G/G grouped vs A/A

In the case of Trifluridine/tipiracil [TAS-102], the “OS HR (95% CI)‡” value (CHEK2 rs22236142 G/C vs G/G) is reported as 0.55 (0.19, 1.58), the “PFS HR (95% CI) ‡” value (CHEK2 rs22236142 G/C vs G/G) is reported as 1.13 (0.55, 2.34) and the “OS HR (95% CI)†” value (CHEK2 rs22236142 G/C vs G/G) is reported as 0.78 (0.29, 2.11). The “PFS HR (95% CI) †” value (CHEK2 rs22236142 G/C vs G/G) was 1.43 (0.72, 2.84), the “OS median, months (95% CI)” value (CHEK2 rs22236142 G/G) was 8.1 (4.4, 14.8+) months and the “PFS median, months (95% CI)” value (CHEK2 rs22236142 G/G) was 2.9 (1.6, 4.9) months. For the same substance, the “OS median, months (95% CI)” value (Che1 rs1045056 T/C) was 12.4 (5.3, 12.4+) months, the “PFS median, months (95% CI)” value (Che1 rs1045056 T/C) was 2.1 (1.2, 4.2) months and the “OS HR (95% CI)‡” value (Che1 rs1045056 T/C vs T/T) was 0.60 (0.19, 1.85). For the same substance, the “PFS HR (95% CI) ‡” value (Che1 rs1045056 T/C vs T/T) was 1.70 (0.80, 3.64), the “OS HR (95% CI)†” value (Che1 rs1045056 T/C vs T/T) was 0.55 (0.18, 1.63) and the “PFS HR (95% CI) †” value (Che1 rs1045056 T/C vs T/T) was 1.25 (0.61, 2.57). For the same substance, the “OS median, months (95% CI)” value (Che1 rs1045056 T/T) was 7.2 (5.4, 15.6+) months, the “PFS median, months (95% CI)” value (Che1 rs1045056 T/T) was 2.9 (1.9, 3.5) months and the “OS median, months (95% CI)” value [1] was 12.4 (5.3, 12.4+) months. For the same substance, the “PFS median, months (95% CI)” value [1] was 2.1 (1.2, 4.6) months, the “OS HR (95% CI)‡” value [2] was 0.60 (0.19, 1.87) and the “PFS HR (95% CI) ‡” value [2] was 1.41 (0.65, 3.07). For the same substance, the “OS HR (95% CI)†” value [2] was 0.56 (0.19, 1.68), the “PFS HR (95% CI) †” value [2] was 1.17 (0.57, 2.40) and the “OS median, months (95% CI)” value (Che1 rs1564796 T/T) was 7.2 (5.4, 15.6+) months. The “PFS median, months (95% CI)” value (Che1 rs1564796 T/T) was 2.9 (2.0, 3.5) months, the “OS median, months (95% CI)” value [3] was 8.3 (5.7, 15.6+) months and the “PFS median, months (95% CI)” value [3] was 2.5 (2.0, 3.4) months. For the same substance, the “OS median, months (95% CI)” value [4] was 6.3 (2.0, 14.8+) months, the “PFS median, months (95% CI)” value [4] was 3.4 (1.5, 6.0+) months and the “OS HR (95% CI)” value [5] was 1.87 (0.74, 4.74). The “PFS HR (95% CI)” value [5] was 0.70 (0.32, 1.53), the “OS median, months (95% CI)” value [6] was 8.1 (5.7, 12.4+) months and the “PFS median, months (95% CI)” value [6] was 2.9 (2.1, 3.4) months. The “OS median, months (95% CI)” value [7] was 8.7 (1.4, 15.6+) months, the “PFS median, months (95% CI)” value [7] was 2.7 (0.9, 11.3) months and the “OS HR (95% CI)” value [8] was 0.85 (0.27, 2.69). For the same substance, the “PFS HR (95% CI)” value [8] was 0.67 (0.27, 1.69), the “OS median, months (95% CI)” value [9] was 8.3 (6.3, 12.4) months and the “PFS median, months (95% CI)” value [9] was 2.5 (2.0, 3.4) months. The “OS median, months (95% CI)” value [10] was 5.7 (2.0, 14.8+) months, the “PFS median, months (95% CI)” value [10] was 2.9 (1.8, 6.0+) months and the “OS HR (95% CI)” value [11] was 1.49 (0.49, 4.53). For the same substance, the “PFS HR (95% CI)” value [11] was 0.88 (0.35, 2.26), the “OS median, months (95% CI)” value [12] was 8.3 (4.9, 15.6+) months and the “PFS median, months (95% CI)” value [12] was 2.5 (1.9, 3.5) months. The “OS median, months (95% CI)” value [13] was 8.1 (5.7, 10.7+) months, the “PFS median, months (95% CI)” value [13] was 3.4 (1.6, 4.6) months and the “OS HR (95% CI)” value [14] was 0.73 (0.26, 2.01). For the same substance, the “PFS HR (95% CI)” value [14] was 0.93 (0.45, 1.90), the “OS median, months (95% CI)” value [15] was 8.1 (6.3, 14.8+) months and the “PFS median, months (95% CI)” value [15] was 3.3 (2.3, 3.7) months. The “OS median, months (95% CI)” value [16] was 5.7 (2.7, 12.4) months, the “PFS median, months (95% CI)” value [16] was 1.9 (1.6, 2.7) months and the “OS HR (95% CI)” value [17] was 1.58 (0.65, 3.83). For the same substance, the “PFS HR (95% CI)” value [17] was 1.24 (0.62, 2.49), the “OS median, months (95% CI)” value [18] was 6.3 (3.4, 15.6+) months and the “PFS median, months (95% CI)” value [18] was 2.1 (1.8, 3.0) months. The “OS median, months (95% CI)” value [19] was 8.3 (6.3, 14.8+) months, the “PFS median, months (95% CI)” value [19] was 3.4 (1.8, 4.9) months and the “OS HR (95% CI)” value [20] was 0.59 (0.24, 1.43). For the same substance, the “PFS HR (95% CI)” value [20] was 0.68 (0.37, 1.28), the “OS median, months (95% CI)” value (FANCD2 rs2272125 T/G) was 7.2 (2.7, 7.8+) months and the “PFS median, months (95% CI)” value (FANCD2 rs2272125 T/G) was 2.8 (1.6, 6.6+) months. The “OS HR (95% CI)‡” value (FANCD2 rs2272125 T/G vs T/T) was 1.38 (0.39, 4.90), the “PFS HR (95% CI) ‡” value (FANCD2 rs2272125 T/G vs T/T) was 0.91 (0.35, 2.35) and the “OS HR (95% CI)†” value (FANCD2 rs2272125 T/G vs T/T) was 1.66 (0.47, 5.83). For the same substance, the “PFS HR (95% CI) †” value (FANCD2 rs2272125 T/G vs T/T) was 0.98 (0.38, 2.51), the “OS median, months (95% CI)” value (FANCD2 rs2272125 T/T) was 8.3 (5.7, 15.6+) months and the “PFS median, months (95% CI)” value (FANCD2 rs2272125 T/T) was 2.7 (2.1, 3.4) months. The “OS median, months (95% CI)” value (FANCD2 rs6792811 A/A) was 8.7 (5.4, 14.8+) months, the “PFS median, months (95% CI)” value (FANCD2 rs6792811 A/A) was 2.9 (2.1, 4.2) months and the “OS median, months (95% CI)” value [21] was 7.2 (3.3, 15.6+) months. The “PFS median, months (95% CI)” value [21] was 2.1 (1.5, 3.4) months, the “OS HR (95% CI)‡” value [22] was 1.17 (0.48, 2.87) and the “PFS HR (95% CI) ‡” value [22] was 1.43 (0.74, 2.74). The “OS HR (95% CI)†” value [22] was 1.27 (0.52, 3.08), the “PFS HR (95% CI) †” value [22] was 1.29 (0.68, 2.47) and the “Median OS (months)” value (JPN TAS-102 cohort, XRCC3 rs861539 G/G (n = 35)) was 6.3 months. The “OS median, months (95% CI)” value (PCNA rs25406 A/A) was 8.7 (5.3, 10.7+) months, the “PFS median, months (95% CI)” value (PCNA rs25406 A/A) was 2.5 (1.4, 4.6) months and the “OS HR (95% CI)‡” value (PCNA rs25406 A/A vs G/G) was 0.55 (0.17, 1.84). The “PFS HR (95% CI) ‡” value (PCNA rs25406 A/A vs G/G) was 0.65 (0.28, 1.51), the “OS HR (95% CI)†” value (PCNA rs25406 A/A vs G/G) was 0.67 (0.21, 2.19) and the “PFS HR (95% CI) †” value (PCNA rs25406 A/A vs G/G) was 0.89 (0.39, 2.03). The “OS median, months (95% CI)” value (PCNA rs25406 Any A) was 8.1 (5.7, 15.6+) months, the “PFS median, months (95% CI)” value (PCNA rs25406 Any A) was 3.3 (2.1, 3.5) months and the “OS HR (95% CI)‡” value (PCNA rs25406 Any A vs G/G) was 0.54 (0.22, 1.35). The “PFS HR (95% CI) ‡” value (PCNA rs25406 Any A vs G/G) was 0.53 (0.27, 1.06), the “OS HR (95% CI)†” value (PCNA rs25406 Any A vs G/G) was 0.64 (0.26, 1.56) and the “PFS HR (95% CI) †” value (PCNA rs25406 Any A vs G/G) was 0.74 (0.39, 1.42). For the same substance, the “OS median, months (95% CI)” value (PCNA rs25406 G/A) was 8.1 (5.7, 15.6+) months, the “PFS median, months (95% CI)” value (PCNA rs25406 G/A) was 3.4 (1.9, 3.7) months and the “OS HR (95% CI)‡” value (PCNA rs25406 G/A vs G/G) was 0.54 (0.19, 1.52). For the same substance, the “PFS HR (95% CI) ‡” value (PCNA rs25406 G/A vs G/G) was 0.46 (0.21, 1.02).
